Tested on: H9c2 (rat cardiomyocytes)
Assay: RoK assay, number of host cells nuclei (drug-related cytotoxicity, H9c2 output, Cmin_Tox)
Conditions: for Cmin_Tox: H9c2 host cells
Method: For this high-content intracellular imaging assay, H9c2 cells were seeded in 225 cm^2 T- FLASK in DMEM with 10% FBS for 4 h to allow attachment. T. cruzi trypomastigotes, collected at days 5 to 8 after infection from LLC-MK2 parasite infected cultures, were allowed to swim out for 4 h at 37°C from a centrifuged pellet (1,600 x g / 10 min). Trypomastigotes were then collected and counted in a CASY Cell Counter using the 60 μm capillary. […] Cells were washed once with PBS before incubation of the infected H9c2 monolayer with trypsin (Life-Technologies) to detach cells from the flask. Cells were counted in a CASY Cell Counter, using the 150 μm capillary, and their density set at 5 x 10^4 cells/mL in supplemented DMEM. Infected H9c2 were dispensed into 384-well plates at 50 μL per well using a Multidrop Combi dispenser. Control wells used to determine a 100% parasitic growth (full 6th column of each plate) were left untreated, whereas not infected cells were added in the control wells used as 0% parasite growth (or 100% parasite growth inhibition; full 18th column of each plate). The four plates corresponding to each RoK assay were predispensed for the same mother plate. […] Cultures were then fixed and stained with 50 μL per well of a PBS solution containing 4% formaldehyde and 2 μM DRAQ5 DNA dye (BioStatus, UK). Then plates were read in a PerkinElmer Opera Phenix using a 20x objective, 3 fields per well. DRAQ5 signal was detected using 640 nm excitation laser and a 690/50 nm emission detection filter. Automated image analysis was performed with a script developed on Acapella High Content Imaging and Analysis Software (PerkinElmer). Two outputs were provided for each sample well: (1) number of host cells nuclei to determine drug-related cytotoxicity (aka H9c2) and (2) number of amastigotes per cell as infection level measurement (aka AM/CELL). Each output is plotted as a time course for each compound at every concentration. This assay was adapted from Alonso-Padilla et al. and Peña et al..
• ME (Maximum Effect) is the maximum percentage of parasite burden reduction reached by any compound concentration. Compounds that decrease the initial parasite load will show a positive value of ME, whereas compounds that allow the progression of infection will render a negative ME value. […] It is calculated for the MCC50 (t50%_MCC50) and for the maximum concentration (t50%_Cmax). […] The value of this parameter is not either interpolated or extrapolated, and it refers to the first experimental time-course point at which a 50% of effect is reached or exceeded. • tlag defines the time elapsed for one particular concentration to reduce parasite burden between two consecutive points at any moment of the time course. It is calculated for the MCC50 (tlag_MCC50) and for the maximum concentration (tlag_Cmax). The value of this parameter is not either interpolated or extrapolated, and it refers to the first experimental time-course point of a positive slope in the normalised plot (i.e. %Cidal_Response). • Cmin_Tox (Minimal CytoToxic Concentration) is the lowest compound concentration that is reducing the number of host mammalian cells below 50% of initial cell density. Cytotoxic compounds may mislead a bona fide antiparasitic action. Therefore, this descriptor is used to flag this kind of compounds and warn about the genuine meaning of the rest of descriptors.

SMILES | Cmin_Tox | cytotoxicity versus host cells (in words)
CC1CS(=O)(=O)CCN1/N=C/c1ccc([N+](=O)[O-])o1 (stereo not shown) [Nifurtimox, nifurtimox, reference compound] | >50 µM | –
Cc1sc(C)c(C(F)(F)F)c1CNCCCNc1cc(=O)c2ccccc2[nH]1.Cl [TCMDC-140766] | 50.0 µM | –
CC(C)N(C(=O)CN1C(=O)C(N)C(=O)N(c2ccccc2)c2ccccc21)c1ccccc1 (stereo not shown) [TCMDC-143071] | >50 µM | –
O=c1[nH]cnc2c([C@@H]3O[C@H](CO)[C@@H](O)[C@H]3O)n[nH]c12 [TCMDC-143083, Formycin B] | >50 µM | –
COc1ccc(CN(C)Cc2ccncc2)cc1-c1ccc(S(=O)(=O)NC2CCC2)s1.O=C(O)C(F)(F)F.O=C(O)C(F)(F)F [TCMDC-143084] | >50 µM | –
CN(C)Cc1ccc(-c2ccc(S(=O)(=O)NCC3CCCO3)c(F)c2)cc1.O=C(O)C(F)(F)F (stereo not shown) [TCMDC-143085] | >50 µM | –
Cc1nc2nc(C)c(Cc3ccc(C(C)C)cc3)c(=O)n2[nH]1 [TCMDC-143087] | >50 µM | –
COc1cc(C(C)C)c(S(C)(=O)=O)cc1C(=O)N1CCN(c2ccccc2Cl)CC1 [TCMDC-143097] | >50 µM | –
COc1ccc(NS(=O)(=O)c2cccc(NC(=O)c3cc(F)cc(F)c3)c2)cc1 [TCMDC-143108] | >50 µM | –
Cc1cc(N(C)C)nc(Nc2ccccc2C)n1 [TCMDC-143109] | >50 µM | –
O=C1CSC(c2cccnc2)N1c1ccc(Cl)cc1Cl (stereo not shown) [TCMDC-143114] | >50 µM | –
CN1CCCN(C(=O)c2ccc(N3CCCC3)cc2Cl)CC1 [TCMDC-143127] | >50 µM | –
COc1ccc(C2CC(c3ccccc3Cl)=NN2C(=O)CNC(=O)C2CCC2)cc1 (stereo not shown) [TCMDC-143130] | >50 µM | –
CCC(=O)Nc1ccc(-c2nc3ccc(Cl)cc3[nH]2)cc1 [TCMDC-143135] | >50 µM | –
COc1ccc(-c2nc3ncccc3o2)cc1NC(=O)c1cccs1 [TCMDC-143137] | >50 µM | –
Cc1nnnn1-c1cccc(C(=O)N2CCC[C@@]3(C)c4ncncc4CCC23)c1 (stereo partly shown) [TCMDC-143148] | >50 µM | –
Cc1c(C#N)c([N+](=O)[O-])nn1Cc1cccc(Cl)c1Cl [TCMDC-143152] | >50 µM | –
CCOc1ccc(NC(=O)C=Cc2ccc(CC)o2)cc1 [TCMDC-143160] | 50.0 µM | –
COc1ccc(NS(=O)(=O)c2cc(NC(=O)c3ccc([N+](=O)[O-])s3)ccc2OC)cc1 [TCMDC-143163] | >50 µM | –

SMILES | Cmin_Tox | cytotoxicity versus host cells (in words)
NC(=O)c1ccccc1Nc1nc(NC2CCCCC2)nc2[nH]ccc12 [TCMDC-143314] | 1.9 µM | –
CCCCn1nnnc1CSc1nc(C)cc(C)c1C#N [TCMDC-143315] | >50 µM | –
O=C(CSc1ccc(F)cc1)N[C@@H](Cc1cnc[nH]1)C(=O)NCCc1ccccc1.O=C(O)C(F)(F)F [TCMDC-143317] | >50 µM | –
CCOc1cnn(C)c(=O)c1Nc1ccc(C(=O)NCc2ccc(F)cc2)cc1 [TCMDC-143319] | >50 µM | –
O=C(NC1C(=O)N(c2ccccc2)C1c1cccnc1)c1ccc(Cl)s1 (stereo not shown) [TCMDC-143324] | >50 µM | –
CCn1nccc1CN(C)C(=O)C=Cc1ccc(Cl)cc1 [TCMDC-143325] | >50 µM | –
Cc1[nH]nc2c1C(c1ccc(OCc3ccccc3F)cc1)SCC(=O)N2 (stereo not shown) [TCMDC-143328] | >50 µM | –
CCCN(Cc1ccc(OC)c(OC)c1)Cc1cc(=O)c2c(C)cc(C)cc2[nH]1 [TCMDC-143331] | >50 µM | –
CC(C)(C)C(Cn1ccnc1)NC(=O)c1ccc2nc(C3CC3)oc2c1 (stereo not shown) [TCMDC-143336] | >50 µM | –
c1ccc(CCNCc2cncc3nc(-c4cnccn4)n(C4CCCCC4)c23)cc1 [TCMDC-143346] | >50 µM | –
CC(=O)Nc1ccc(-c2noc(CC3CCCN(Cc4cccc(F)c4C)C3)n2)cc1 (stereo not shown) [TCMDC-143362] | 50.0 µM | –
N#Cc1ccc(S(=O)(=O)N2CCC3(CCN(c4ccccc4)C3=O)CC2)cc1 [TCMDC-143371] | >50 µM | –
CC(C)Nc1nccc(-c2c(-c3ccc(F)cc3)ncn2C2CCOCC2)n1 [TCMDC-143379] | >50 µM | –
O=C(N1CCc2ccccc2CC1)C1(C(=O)N2CCC(n3c(=O)[nH]c4ncccc43)CC2)CC1.O=C(O)C(F)(F)F [TCMDC-143381] | >50 µM | –
COc1ccc2ncc(=O)n(CCN3CCOC(CNCc4ccc(C(F)(F)F)cc4F)C3)c2n1 (stereo not shown) [TCMDC-143384] | >50 µM | –
CS(=O)(=O)c1cccc(CNC(=O)c2cncc(N3CCN(c4ccc(F)cc4)CC3)c2)c1.O=C(O)C(F)(F)F.O=C(O)C(F)(F)F.O=C(O)C(F)(F)F [TCMDC-143385] | >50 µM | –
O[C@H]1CC[C@H](Nc2nccc(-c3sc(C4CCOCC4)nc3-c3ccc(F)c(F)c3)n2)CC1 [TCMDC-143387] | 16.7 µM | –
O=C(O)C(F)(F)F.O=c1oc2ccccc2n1C1CCN(Cc2ccccc2-c2cccnc2)CC1 [TCMDC-143389] | >50 µM | –
Cc1c(C(C)NC(=O)Nc2cccc(Cl)c2)sc2ncnn12 (stereo not shown) [TCMDC-143405] | >50 µM | –

SMILES | Cmin_Tox | cytotoxicity versus host cells (in words)
O=C(c1cccc(Cl)c1Cl)N1CCn2c1nc(-c1ccncc1)cc2=O [TCMDC-143409] | >50 µM | –
CS(=O)(=O)c1cccc(-c2cnc(N)c3c(-c4ccc(CO)cc4)csc23)c1.O=C(O)C(F)(F)F [TCMDC-143410] | >50 µM | –
O=C(NCCc1ccccn1)C(c1cn[nH]c1)N1CCN(c2ccc(Cl)c(Cl)c2)CC1 (stereo not shown) [TCMDC-143411] | >50 µM | –
COc1cc(-c2nc(N3CCOCC3)sc2-c2ccnc(NC3CCOCC3)n2)ccc1Cl.O=C(O)C(F)(F)F [TCMDC-143414] | >50 µM | –
CC(=Cc1ccccc1)CN1CCC(=O)N(Cc2cccnc2)CC1 [TCMDC-143421] | >50 µM | –
CC(C)Oc1cccc(N2CCC(C(=O)N3CCCN(C(C)C)CC3)CC2)c1.Cl [TCMDC-143432] | >50 µM | –
CCN(Cc1ccncc1)Cc1ccc(NC(=O)c2cc(-c3ccc(F)cc3)n[nH]2)cc1 [TCMDC-143433] | >50 µM | –
COc1cccc(CCNC(=O)C(c2cn[nH]c2)N2CCN(c3ccc(Cl)cc3)CC2)c1 (stereo not shown) [TCMDC-143434] | >50 µM | hints of cytotoxicity even at low concentrations
CC(C)c1cc(C(=O)N2CCCC(c3cc4ncccc4[nH]3)C2)on1 (stereo not shown) [TCMDC-143439] | >50 µM | –
Fc1ccc(OC2CC(NCc3cccc4cn[nH]c34)C2)cc1C(F)(F)F (stereo not shown) [TCMDC-143455] | 16.7 µM | –
CNc1c(C(N)=O)c(-c2ccc3scnc3c2)nn1CC(F)(F)F.O=C(O)C(F)(F)F [TCMDC-143463] | >50 µM | –
OCCCNc1nc(Nc2ccncc2)nc2ccccc12 [TCMDC-143476] | >50 µM | –
Cc1nn(C)c(Cl)c1CN(Cc1cccnc1)Cc1ccsc1 [TCMDC-143477] | >50 µM | –
Cc1ccc(C)c(OC2CCN(C(=O)C(C)n3ccnc3)CC2)c1 (stereo not shown) [TCMDC-143481] | >50 µM | –
Cc1[nH]c2ccccc2c(=O)c1Cc1c(C)[nH]c2ccccc2c1=O [TCMDC-143490] | >50 µM | –
CNc1cc(C)nc(C2CN(C(=O)c3n[nH]c4ccccc34)CCO2)c1 (stereo not shown) [TCMDC-143494] | >50 µM | –
Cc1nccn1C1CCCN(C(=O)c2cc3c(F)cccc3s2)C1 (stereo not shown) [TCMDC-143498] | >50 µM | –
Cc1cc2cncn2c(C2CCCCN2C(=O)c2cccs2)n1 (stereo not shown) [TCMDC-143500] | >50 µM | –
Cn1cncc1CN1CCC2(CC1)COC(Cc1ccccc1)C2 (stereo not shown) [TCMDC-143502] | >50 µM | –

— publication PMC8318231, “Rate-of-Kill (RoK) assays to triage large compound sets for Chagas disease drug discovery: Application to GSK Chagas Box” (PLoS Neglected Tropical Diseases, 2021)
